Test results published in patent US20260250322A1, “NEW PEPTIDES AS SELECTIVE IL-23 RECEPTOR INHIBITORS” (SANOFI, priority 2023, published 2026).
Numbered stars: 1 amine (or outer) side, 2 acyl side, 3 side chain; on linkers, the order of the positions; unused ones are H or OH. Bridge positions count the residues as written; N and C are the ends. Square brackets hold non-standard residues; d marks the D form. Primed or numbered codes have the meaning given here. Peptide text beside a SMILES is read from it. Phe(4-OMe) = Yme, 4-methoxy-L-phenylalanine (O-methyl-tyrosine), COc1ccc(C[C@H](N[*:1])C(=O)[*:2])cc1; Tyr(Me) = Yme = 4-methoxy-L-phenylalanine (O-methyl-tyrosine), COc1ccc(C[C@H](N[*:1])C(=O)[*:2])cc1; Tyr(Me)″ = O-methyl-tyrosine (4-methoxy-phenylalanine), COc1ccc(C[C@H](N[*:1])C(=O)[*:2])cc1; 1Nal = N[C@@H](Cc1cccc2ccccc12)C(=O)O; 2Nal = N[C@@H](Cc1ccc2ccccc2c1)C(=O)O; Agb = N=C(N)NCC[C@H](N)C(=O)O; dOrn = NCCC[C@@H](N)C(=O)O; Thp = NC1(C(=O)O)CCOCC1; Aib = CC(C)(N)C(=O)O; Ahx = NCCCCCC(=O)O

What was measured:
[1] = Chemical stability (relative purity loss) of peptide compounds in buffer formulations; assay type: physicochemical
Method: Purity of a compound batch was determined through UHPLC/MS prior to chemical stability measurement using Method A.
For stability assessment, the target concentration was 300 μM pure compound. Therefore, solutions from solid samples were prepared in the following buffer systems with a concentration of ~300 µM compound based on the previously determined % purity. The solid samples were obtained by drying down aliquots of a freshly prepared acetonitrile stock solution using a THERMO SPEEDVAC vacuum centrifuge. The dry down time was 3 hours.
The following buffer systems were applied: • Solubility buffer system A) 100 mM phosphate buffer pH 7.4. • Solubility buffer system B) 100 mM phosphate buffer pH 6.5. • Solubility buffer system C) 100 mM HCl pH 1.2.
Prepared solutions were filtered through […] pore size and filled into sterilized glass containers under laminar flow conditions.
[…] After this time course, the samples were centrifuged for 15 min at 2500 RCF. Then 1.5 μl of the undiluted supernatant were analysed with UHPLC-UV.
The chemical stability was rated through the relative loss of purity calculated by the equation:
[(purity after 0 hours at 37° C.)(purity after 24 hours at 37° C.)]/(purity after 0 hours at 37° C.)]*100%.
The purity is calculated as [(peak area peptide)/(total peak area)]*100%.
Buffer composition: 100 mM HCl pH 1.2, 100 mM phosphate buffer pH 6.5, 100 mM phosphate buffer pH 7.4

human IL-23R = target: T1, human IL-23R (Homo sapiens, UniProt Q5VWK5); assay: Human ELISA IL-23/IL-23R binding inhibition; conditions: human IL-23 coated, recombinant human IL-23R-Fc chimera
T1 sequence (Q5VWK5 24-355 limits assumed): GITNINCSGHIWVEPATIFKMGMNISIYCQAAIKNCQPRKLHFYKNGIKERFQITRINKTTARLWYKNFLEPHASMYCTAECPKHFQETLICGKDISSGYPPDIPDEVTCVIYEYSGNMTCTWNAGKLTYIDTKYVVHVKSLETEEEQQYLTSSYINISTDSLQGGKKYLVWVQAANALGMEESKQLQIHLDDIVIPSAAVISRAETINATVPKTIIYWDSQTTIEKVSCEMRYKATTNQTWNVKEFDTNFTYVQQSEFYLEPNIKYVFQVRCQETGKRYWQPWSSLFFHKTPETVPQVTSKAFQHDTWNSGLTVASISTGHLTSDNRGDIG
How it was run: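 Plates coated with human IL-23 at 1 μg/ml overnight at 4° C; serially diluted peptides added with recombinant human IL-23R-Fc at 0.1 μg/ml final, 60 min at RT. Bound receptor detected with anti-human IgG1-HRP and a fluorogenic peroxidase substrate.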

[2] = tested on: IL-23 induced STAT3 signaling; assay: Inhibition of IL-23 induced STAT3 signaling in HEK-Blue IL-23 cells (SEAP reporter); assay type: cell-based; conditions: human IL-23 0.25 ng/ml, read-out: Inhibition of IL-23 induced pSTAT3 (IC50 nM)
How it was run: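 HEK-Blue IL-23 cells (10,000/well) preincubated 60 min at 37 °C with serially diluted compound, then stimulated overnight with human IL-23 (0.25 ng/ml final). STAT3-driven SEAP in supernatant read with QUANTI-Blue after 45 min at room temperature, OD 620-655 nm; dose-response fitted.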

[3] = target: T2, IL-23 receptor on the surface of HEK-Blue IL-23 cells (UniProt Q5VWK5 24-629, limits assumed); assay: cell-based or functional assay
T2 sequence (looked up): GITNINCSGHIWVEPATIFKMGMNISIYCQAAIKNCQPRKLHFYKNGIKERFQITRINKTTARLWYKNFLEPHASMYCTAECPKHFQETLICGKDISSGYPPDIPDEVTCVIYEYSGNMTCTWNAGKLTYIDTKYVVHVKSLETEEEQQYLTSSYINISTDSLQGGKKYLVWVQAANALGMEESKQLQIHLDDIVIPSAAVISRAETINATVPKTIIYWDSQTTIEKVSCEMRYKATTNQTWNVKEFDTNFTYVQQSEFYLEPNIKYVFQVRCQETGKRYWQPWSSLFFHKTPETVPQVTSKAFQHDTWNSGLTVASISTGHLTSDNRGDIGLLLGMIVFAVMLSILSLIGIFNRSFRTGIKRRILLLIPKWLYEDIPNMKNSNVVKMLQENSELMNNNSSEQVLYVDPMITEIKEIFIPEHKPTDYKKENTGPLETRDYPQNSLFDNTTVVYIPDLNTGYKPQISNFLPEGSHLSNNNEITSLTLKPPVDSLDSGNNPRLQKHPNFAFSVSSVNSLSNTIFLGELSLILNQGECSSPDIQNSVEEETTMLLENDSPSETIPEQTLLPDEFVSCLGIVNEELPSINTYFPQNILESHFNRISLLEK

[4] = target: T3, recombinant human IL-23R-Fc chimera (human, UniProt Q5VWK5 24-353, limits assumed); assay: competition ELISA: coated human IL-23, IL-23R-Fc 0.1 ug/ml, peptide titrated
T3 construct: Recombinant reagent; also called interleukin-23 receptor; not shown: detected with goat anti-hu-IgG1-HRP antibody
T3 sequence (looked up): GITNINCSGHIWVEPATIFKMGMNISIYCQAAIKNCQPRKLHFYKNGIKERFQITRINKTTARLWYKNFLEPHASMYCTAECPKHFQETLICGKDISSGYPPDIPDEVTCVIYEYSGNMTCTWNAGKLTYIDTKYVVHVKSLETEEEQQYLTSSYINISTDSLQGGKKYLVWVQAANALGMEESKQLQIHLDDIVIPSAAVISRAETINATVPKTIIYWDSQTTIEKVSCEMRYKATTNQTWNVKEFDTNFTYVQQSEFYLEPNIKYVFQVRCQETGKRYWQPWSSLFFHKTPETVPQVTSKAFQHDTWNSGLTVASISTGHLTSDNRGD
Method: Antagonism of peptide compounds for human interleukin-23 receptor inhibitors, was determined by an ELISA assay.
A 384-well plate was coated with 50 μl/well of human IL-23 at a final concentration of 1 μg/ml and incubated overnight at 4° C. The wells were washed 3 times with 80 μl wash buffer and blocked with 80 μl blocking buffer for 60 minutes at room temperature and washed again. 20 μl of serially diluted test peptides was added to each well and subsequently 20 μl of recombinant human IL-23R-Fc chimera at final concentration of 0.1 μg/ml. The plate was incubated for 60 minutes at room temperature. After the wells were washed, bound IL-23R-Fc was detected with goat anti-hu-lgG1-HRP antibody. Signals were visualized with QuantaBlu Fluorogenic Peroxidase Substrate.

[5] = pH 6.5 (100 mM phosphate buffer)
[6] = pH 7.4 (100 mM phosphate buffer)

COc1ccc(C[C@@H]2NC(=O)[C@H](C)NC(=O)[C@H](CCC(N)=O)NC(=O)[C@H](Cc3c[nH]c4ccccc34)NC(=O)[C@H]([C@@H](C)O)NC(=O)[C@H](CC(N)=O)NC(=O)[C@H](NC(C)=O)CCCCNC(=O)C[C@@H](C(=O)N[C@@H](CC(N)=O)C(=O)N[C@@H](CC(N)=O)C(N)=O)NC(=O)C(C)(C)NC(=O)[C@H](Cc3cccc4ccccc34)NC2=O)cc1 [compound 8] (Ac-[dK]NTWQAY(Me)[1Nal][Aib]DNN-NH2; lactam 1-10)
Conc. [mg/ml] 0 h ([1]; pH 1.2 (100 mM HCl)): 0.2 mg/mL | Conc. [mg/ml] 24 h 37° C. ([1]; pH 1.2 (100 mM HCl)): 0.2 mg/mL | Mass Balance [%] 24 h 37° C. ([1]; pH 1.2 (100 mM HCl)): −2.5% | Relative Purity Loss [%] 24 h 37° C. ([1]; pH 1.2 (100 mM HCl)): 26.2% | Conc. [mg/ml] 0 h [1, 5]: 0.2 mg/mL | Conc. [mg/ml] 24 h 37° C. [1, 5]: 0.2 mg/mL | Mass Balance [%] 24 h 37° C. [1, 5]: 4.1% | Relative Purity Loss [%] 24 h 37° C. [1, 5]: −1.4% | Conc. [mg/ml] 0 h [1, 6]: 0.2 mg/mL | Conc. [mg/ml] 24 h 37° C. [1, 6]: 0.2 mg/mL | Mass Balance [%] 24 h 37° C. [1, 6]: 4.6% | Relative Purity Loss [%] 24 h 37° C. [1, 6]: 2.0% | IC50 (human IL-23R): 2.74 nM | IC50 [2]: 943 nM

B1: peptide compound SEQ ID NO: 11 (peptide)
peptide: Ac-[dD]NTWQR[Tyr(Me)][1Nal][Aib]KNN-NH2
modifications: lactam 1-10
SMILES: COc1ccc(C[C@@H]2NC(=O)[C@H](CCCNC(=N)N)NC(=O)[C@H](CCC(N)=O)NC(=O)[C@H](Cc3c[nH]c4ccccc34)NC(=O)[C@H]([C@@H](C)O)NC(=O)[C@H](CC(N)=O)NC(=O)[C@H](NC(C)=O)CC(=O)NCCCC[C@@H](C(=O)N[C@@H](CC(N)=O)C(=O)N[C@@H](CC(N)=O)C(N)=O)NC(=O)C(C)(C)NC(=O)[C@H](Cc3cccc4ccccc34)NC2=O)cc1
Inhibition of IL-23 induced pSTAT3 (IC50 nM) [3]: 9280 nM | IC50 [4]: 18.9 nM

B2: peptide compound SEQ ID NO: 16 (peptide)
peptide: Ac-[dK]NTWQR[Tyr(Me)][1Nal][Aib]ENN-NH2
modifications: lactam 1-10
SMILES: COc1ccc(C[C@@H]2NC(=O)[C@H](CCCNC(=N)N)NC(=O)[C@H](CCC(N)=O)NC(=O)[C@H](Cc3c[nH]c4ccccc34)NC(=O)[C@H]([C@@H](C)O)NC(=O)[C@H](CC(N)=O)NC(=O)[C@H](NC(C)=O)CCCCNC(=O)CC[C@@H](C(=O)N[C@@H](CC(N)=O)C(=O)N[C@@H](CC(N)=O)C(N)=O)NC(=O)C(C)(C)NC(=O)[C@H](Cc3cccc4ccccc34)NC2=O)cc1
Inhibition of IL-23 induced pSTAT3 (IC50 nM) [3]: 8010 nM | IC50 [4]: 5.74 nM

B3: peptide compound SEQ ID NO: 27 (peptide)
peptide: Ac-[dOrn]NTWQR[Tyr(Me)][2Nal][Aib]DNN-NH2
modifications: lactam 1-10
SMILES: COc1ccc(C[C@@H]2NC(=O)[C@H](CCCNC(=N)N)NC(=O)[C@H](CCC(N)=O)NC(=O)[C@H](Cc3c[nH]c4ccccc34)NC(=O)[C@H]([C@@H](C)O)NC(=O)[C@H](CC(N)=O)NC(=O)[C@H](NC(C)=O)CCCNC(=O)C[C@@H](C(=O)N[C@@H](CC(N)=O)C(=O)N[C@@H](CC(N)=O)C(N)=O)NC(=O)C(C)(C)NC(=O)[C@H](Cc3ccc4ccccc4c3)NC2=O)cc1
IC50 [4]: 19.7 nM

B4: peptide compound SEQ ID NO: 39 (peptide)
peptide: Ac-[dK]NTWQ[Agb][Phe(4-OMe)][2Nal][Aib]DNN-NH2
modifications: lactam 1-10
SMILES: COc1ccc(C[C@@H]2NC(=O)[C@H](CCNC(=N)N)NC(=O)[C@H](CCC(N)=O)NC(=O)[C@H](Cc3c[nH]c4ccccc34)NC(=O)[C@H]([C@@H](C)O)NC(=O)[C@H](CC(N)=O)NC(=O)[C@H](NC(C)=O)CCCCNC(=O)C[C@@H](C(=O)N[C@@H](CC(N)=O)C(=O)N[C@@H](CC(N)=O)C(N)=O)NC(=O)C(C)(C)NC(=O)[C@H](Cc3ccc4ccccc4c3)NC2=O)cc1
IC50 [4]: 1.46 nM

B5: peptide compound SEQ ID NO: 40 (peptide)
peptide: [Ahx]NTWQ[Agb][Phe(4-OMe)][2Nal][Aib]ENN-NH2
modifications: lactam N-10
SMILES: COc1ccc(C[C@@H]2NC(=O)[C@H](CCNC(=N)N)NC(=O)[C@H](CCC(N)=O)NC(=O)[C@H](Cc3c[nH]c4ccccc34)NC(=O)[C@H]([C@@H](C)O)NC(=O)[C@H](CC(N)=O)NC(=O)CCCCCNC(=O)CC[C@@H](C(=O)N[C@@H](CC(N)=O)C(=O)N[C@@H](CC(N)=O)C(N)=O)NC(=O)C(C)(C)NC(=O)[C@H](Cc3ccc4ccccc4c3)NC2=O)cc1
IC50 [4]: 3.11 nM

B6: peptide compound SEQ ID NO: 51 (peptide)
peptide: Ac-[dK]NTWQA[Phe(4-OMe)][2Nal][Thp]DNN-NH2
modifications: lactam 1-10
SMILES: COc1ccc(C[C@@H]2NC(=O)[C@H](C)NC(=O)[C@H](CCC(N)=O)NC(=O)[C@H](Cc3c[nH]c4ccccc34)NC(=O)[C@H]([C@@H](C)O)NC(=O)[C@H](CC(N)=O)NC(=O)[C@H](NC(C)=O)CCCCNC(=O)C[C@@H](C(=O)N[C@@H](CC(N)=O)C(=O)N[C@@H](CC(N)=O)C(N)=O)NC(=O)C3(CCOCC3)NC(=O)[C@H](Cc3ccc4ccccc4c3)NC2=O)cc1
IC50 [4]: 0.78 nM

B7: peptide compound SEQ ID NO: 47 (peptide)
peptide: Ac-[dK]NTWQA[Tyr(Me)″][2Nal]RDNN-NH2
modifications: lactam 1-10
SMILES: COc1ccc(C[C@@H]2NC(=O)[C@H](C)NC(=O)[C@H](CCC(N)=O)NC(=O)[C@H](Cc3c[nH]c4ccccc34)NC(=O)[C@H]([C@@H](C)O)NC(=O)[C@H](CC(N)=O)NC(=O)[C@H](NC(C)=O)CCCCNC(=O)C[C@@H](C(=O)N[C@@H](CC(N)=O)C(=O)N[C@@H](CC(N)=O)C(N)=O)NC(=O)[C@H](CCCNC(=N)N)NC(=O)[C@H](Cc3ccc4ccccc4c3)NC2=O)cc1
notes: synthetic macrolactam
IC50 [4]: 1.34 nM
